# From patent publication US20140161720A1, “TREATMENT OF ANGIOGENIC- OR VASCULAR-ASSOCIATED DISEASES” (THE GENERAL HOSPITAL CORPORATION, priority 2011, published 2014)
# Key:
# [1] = tested on: orthotopic E0771 mammary tumors; assay: Tumor growth delay study, E0771; type: in vivo, female SCID mice; conditions: start ~100 mm^3, 37.5 mg/kg daily i.p.
# Method: To assess the anti-tumor effects of DAL, female SCID mice bearing orthotopic 4T1 or E0771 mammary tumors were treated with daily i.p. injections of 37.5 mg/kg DAL or saline. In order to calculate tumor volumes, the major and minor axis diameters were measured with calipers and the tumor volume was calculated by assuming a spherical shape based on the average of these two dimensions. The tumors were implanted in the mammary fat pad and allowed to grow to a starting size (small ˜100 mm^3 tumors for E0771, large ˜200 mm^3 tumors for 4T1) over ˜2 weeks. To ensure that tumors in the two groups were of similar growth rates, the treatment with saline or DAL was begun in pairs of tumors with similar sizes and growth times. Tumor volumes were measured every other day until the tumors reached an average of ˜10 mm in diameter. Tumor growth was quantified with the doubling rate, and calculated by fitting an exponential growth curve to the data for tumor size versus time.
# As shown in Example 3, DAL has an antivascular effect in orthotopic mammary tumors in mice. Thus, the antitumor effect of DAL was next assessed. […] The effect of DAL on the growth of orthotopic 4T1 and E0771 mammary tumors with daily treatment of DAL or saline was evaluated (FIG. 4A). 37.5 mg/kg of DAL was used for these experiments based on the pharmacokinetics results as well as in vitro and in vivo data. […]
# HUVEC = assay: F-actin visualization and cell shape in HUVECs (phalloidin); type: cell-based, human; conditions: 10 μM, three hours
# Method: For F-actin visualization, HUVECs were plated and treated with saline or DAL (10 μM) for three hours. After fixing and permeabilizing these cultured cells, the cells were subsequently stained with phalloidin. […] Existing cordlike structures, when exposed to 10 μM of DAL for 3 hours, were also disrupted. […] HUVEC monolayers were disrupted mechanically with a pipette tip and the migration of cells to “heal” the wound was monitored using microscopy.
# To gain further insight into the anti-vascular effects of DAL and to assess the involvement of DAL in modulating actin assembly, normal human umbilical vein endothelial cells(HUVEC) were plated and treated with 10 μM DAL for three hours. The cells were fixed, permeabilized, and subsequently stained with phalloidin to visualize F-actin (FIG. 5A).
# recombinant purified IDO = recombinant purified IDO (Homo sapiens, UniProt P14902); assay: Enzymatic assay with recombinant purified IDO; type: biochemical
# Method: To determine whether DAL is an immuno-modulator, the effect of DAL on IDO activity was measured. To monitor IDO enzymatic activity, HEK 293 cells were engineered to express IDO and treated with DAL in a 10-dose IC50 mode with threefold serial dilutions. The IDO activity was analyzed by the presence of kynurenine (the first stable catabolite downstream of IDO) with a spectrophotometric assay (Katz et al., 2008; Littlejohn et al., 2000). […] Because DAL inhibits recombinant purified IDO in the enzymatic assay, it is likely that DAL physically interacts with IDO1, forming a complex that represses IDO1 activity. To elucidate a possible structural basis for this inhibition, comparative modeling and molecular docking were used (FIGS. 9A-9D). […] These residues are disordered in all existing IDO structures (Thackray et al., 2008); however, in the tryptophan-bound bacterial TDO structure, the corresponding loop is well-ordered and forms a “lid” on the binding pocket. Similar to human IDO1, bacterial TDO is a heme enzyme catalyzing the conversion of tryptophan into N-formyl-kynurenine. The binding site residues are strongly conserved between the two enzymes: in particular, the lid sequences share the common motif [K/R]GTGG[T/S]. It was therefore assessed that if lid closure may be a critical step for the efficient reaction catalysis by IDO. […]
# recombinant purified IDO, sequence (P14902 whole entry): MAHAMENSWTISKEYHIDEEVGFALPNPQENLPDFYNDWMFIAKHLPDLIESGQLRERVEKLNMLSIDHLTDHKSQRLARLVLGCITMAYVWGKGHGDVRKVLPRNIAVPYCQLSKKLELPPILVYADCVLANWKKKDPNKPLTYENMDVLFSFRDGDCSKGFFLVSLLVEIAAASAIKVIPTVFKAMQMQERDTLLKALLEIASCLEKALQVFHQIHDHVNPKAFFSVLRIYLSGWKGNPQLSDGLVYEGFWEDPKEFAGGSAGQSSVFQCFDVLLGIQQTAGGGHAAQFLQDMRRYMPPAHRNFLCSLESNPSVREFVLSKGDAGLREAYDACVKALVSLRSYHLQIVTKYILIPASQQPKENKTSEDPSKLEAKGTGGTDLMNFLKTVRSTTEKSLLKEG
smiles,measurement,setting,value
"CC1(C)C=CC2=C(O1)C(=O)c1ccccc1C2=O [DAL, dehydro-alpha-lapachone]",tumor volume doubling time,[1],4.77 ± 0.58 days
same,cell size and shape,HUVEC,smaller than untreated control cells and had a rounded shape
same,F-actin organization,HUVEC; phalloidin,actin present only as small fibers and spots throughout the cells or accumulated close to the nuclei
same,inhibition of recombinant purified IDO,recombinant purified IDO,inhibits
